Values after ≈ are worked out from the molar mass of the structure shown. Read-outs that look alike come from different tables or passages of the source. Positions of bridges follow the written chain, without caps; N, C: chain ends. Non-standard residues stand in square brackets, D forms with d. Residues, ends and D or L forms follow the SMILES beside them. *: point of attachment. Decanoyl(3R-OH) = CCCCCCC[C@@H](O)CC(=O)*; Decanoyl = CCCCCCCCCC(=O)*; dDab = NCC[C@@H](N)C(=O)O; X6 = CC(C)CCCC(O)CC(=O)*; Dab = NCC[C@H](N)C(=O)O; Dap = NC[C@H](N)C(=O)O
Tests used:
[1] = system: K. pneumoniae ATCC BAA-2146, NDM-1 pos; details: ATCC BAA-2146
Description: (§1) Bacteria were either obtained from American Type Culture Collection (ATCC; Manassas, Va., USA) or independent academic clinical isolate collections, as listed in Table 18 below. Bacteria were cultured in Nutrient broth (NB; Bacto Laboratories, catalogue No. 234000) or Mueller Hinton broth (MHB; Bacto Laboratories, catalogue No. 211443) at 37° C. overnight with shaking (˜180 RPM). A sample of each culture was then diluted 50-fold in fresh MHB and incubated at 37° C. for 2-3 h with shaking (˜180 RPM). Compound stock solutions were prepared as 0.64 mg/mL or 2.56 mg/mL in water. The compounds, at twice the final desired concentration, were serially diluted 2-fold across the wells of 96-well plates (Polystyrene, Corning, catalogue No. 3370). Mid-log phase bacterial cultures (after 2-3 h incubation) were diluted to a final concentration of 1×10^6 colony forming units (CFU)/mL, and 50 μL was added to each well giving a final cell density of 5×10^5 and a compound concentration range of 32 μg/mL to 0.015 μg/mL (128-0.06 μg/mL against P. aeruginosa PA9704).

[2] = system: S. aureus ATCC 25923, MSSA; details: ATCC 25923
Description: as §1

A. baumannii GN_093 PmxR = details: GN 093 PmxR
Description: as §1

[3] = system: P. aeruginosa GN_043, PmxR
Description: as §1

K. pneumoniae ATCC 13883 = details: ATCC 13883
Description: as §1

[4] = system: K. pneumoniae GN_102 PmxR; details: GN 102 PmxR
Description: as §1

P. aeruginosa ATCC 27853 = details: ATCC 27853
Description: as §1

[5] = system: K. pneumoniae ATCC 700603, MDR; details: ATCC 700603
Description: as §1

[6] = system: K. pneumoniae GN_106, PmxR; details: GN 106, PmxR
Description: as §1

[7] = system: P. aeruginosa GN_105, PmxR; details: GN 105, PmxR
Description: as §1

E. coli ATCC 25922 = details: ATCC 25922
Description: as §1

A. baumannii ATCC 19606 = details: ATCC 19606
Description: as §1

Row | SMILES | MIC, K. pneumoniae ATCC BAA-2146, NDM-1 pos [1] [µg/mL] | MIC A. baumannii GN_093 PmxR (A. baumannii GN_093 PmxR) [µg/mL] | MIC, K. pneumoniae ATCC 13883 (K. pneumoniae ATCC 13883) [µg/mL] | MIC K. pneumoniae GN_102 PmxR [4] [µg/mL] | MIC, P. aeruginosa ATCC 27853 (P. aeruginosa ATCC 27853) [µg/mL] | MIC, K. pneumoniae ATCC 700603, MDR [5] [µg/mL] | MIC K. pneumoniae GN_106, PmxR [6] [µg/mL] | MIC P. aeruginosa GN_105, PmxR [7] [µg/mL] | MIC, E. coli ATCC 25922 (E. coli ATCC 25922) [µg/mL] | MIC, A. baumannii ATCC 19606 (A. baumannii ATCC 19606) [µg/mL] | other results
1 | CC(C)CCCC(O)CC(=O)N[C@@H](CCN)C(=O)N[C@H]1CCNC(=O)[C@H](CC(C)C)NC(=O)[C@H](CCN)NC(=O)[C@H](CCN)NC(=O)[C@H](CC(C)C)NC(=O)[C@@H](Cc2ccccc2)NC(=O)[C@H](CCN)NC1=O (stereo partly drawn) [compound 5566, nC5(7-Me)CH(OH)CH2CO-L-Dab-cyc[L-Dab-L-Dab-D-Phe-L-Leu-L-Dab-L-Dab-L-Leu]] (X6-[Dab][Dab][Dab][dF]L[Dab][Dab]L; lactam 2-C) | 16 (≈ 15.5 µM) | 16 (≈ 15.5 µM) | 4 (≈ 3.88 µM) | 32 (≈ 31.1 µM) | 4 (≈ 3.88 µM) | 8 (≈ 7.76 µM) | 16 (≈ 15.5 µM) | 4 (≈ 3.88 µM) | 4 (≈ 3.88 µM) | 8 (≈ 7.76 µM) | MIC, S. aureus ATCC 25923, MSSA [2]: 2 µg/mL (≈ 1.94 µM); MIC P. aeruginosa GN_043, PmxR ([3]; Table 6, polymyxin-resistant): 2 µg/mL (≈ 1.94 µM)
2 | CCCCCCCCCC(=O)N[C@H](CCN)C(=O)N[C@H]1CCNC(=O)[C@H](CC(C)C)NC(=O)[C@H](CCN)NC(=O)[C@H](CCN)NC(=O)[C@H](CC(C)C)NC(=O)[C@@H](Cc2ccccc2)NC(=O)[C@H](CCN)NC1=O [compound 5017, nC9CO-D-Dab-cyc[L-Dab-L-Dab-D-Phe-L-Leu-L-Dab-L-Dab-L-Leu]] (Decanoyl-[dDab][Dab][Dab][dF]L[Dab][Dab]L; lactam 2-C) |  | 16 (≈ 15.6 µM) |  | 32 (≈ 31.1 µM) |  |  | 16 (≈ 15.6 µM) | 4 (≈ 3.89 µM) |  |  | MIC K. pneumoniae ATCC BAA-2146, NDM-1 pos [1]: 16 µg/mL (≈ 15.6 µM); MIC S. aureus ATCC 25923, MSSA [2]: 16 µg/mL (≈ 15.6 µM); MIC P. aeruginosa GN_043, PmxR [3]: 2 µg/mL (≈ 1.94 µM); MIC K. pneumoniae ATCC 13883 (K. pneumoniae ATCC 13883): 8 µg/mL (≈ 7.78 µM); MIC P. aeruginosa ATCC 27853 (P. aeruginosa ATCC 27853): 2 µg/mL (≈ 1.94 µM); MIC K. pneumoniae ATCC 700603, MDR [5]: 16 µg/mL (≈ 15.6 µM); MIC E. coli ATCC 25922 (E. coli ATCC 25922): 4 µg/mL (≈ 3.89 µM); MIC A. baumannii ATCC 19606 (A. baumannii ATCC 19606): 8 µg/mL (≈ 7.78 µM)
3 | CCCCCCC[C@@H](O)CC(=O)N[C@H](CCN)C(=O)N[C@H]1CCNC(=O)[C@H](CC(C)C)NC(=O)[C@H](CCN)NC(=O)[C@H](CCN)NC(=O)[C@H](CC(C)C)NC(=O)[C@@H](Cc2ccccc2)NC(=O)[C@H](CN)NC1=O [compound 993, 3(R)OH-nC9CO-D-Dab-cyc[L-Dab-L-Dap-D-Phe-L-Leu-L-Dab-L-Dab-L-Leu]] ({Decanoyl(3R-OH)}-[dDab][Dab][Dap][dF]L[Dab][Dab]L; lactam 2-C) | 8 (≈ 7.76 µM) |  | 4 (≈ 3.88 µM) |  | 2 (≈ 1.94 µM) | 4 (≈ 3.88 µM) |  |  | 2 (≈ 1.94 µM) | 8 (≈ 7.76 µM) | MIC, S. Aureus ATCC 25923, MSSA [2]: 8 µg/mL (≈ 7.76 µM); MIC, A. baumannii Cl Ptyela 10073 4512:2, PmxR (A. baumannii GN_093 PmxR): 16 µg/mL (≈ 15.5 µM); MIC, P. aeruginosa FADDI-PA070, PmxR ([3]; Table 5, polymyxin-resistant): 2 µg/mL (≈ 1.94 µM); MIC, K. pneumoniae Cl Koprana 10065 0661:1, PmxR [4]: 2 µg/mL (≈ 1.94 µM); MIC, K. pneumoniae Cl 138-16347-20362, PmxR [6]: 2 µg/mL (≈ 1.94 µM); MIC, P. aeruginosa PA9704, PmxR [7]: 2 µg/mL (≈ 1.94 µM)

Source: patent US11279733B2, “Peptide antibiotics” (priority 2017, dated 2022)
